Literature values in patent US20200319191A1, “MOLECULAR PROFILING FOR CANCER” (Caris MPI, Inc., priority 2015, published 2020).

Target: T1, ribonucleotide reductase (Homo sapiens, UniProt P23921)
T1 sequence (P23921 1-792): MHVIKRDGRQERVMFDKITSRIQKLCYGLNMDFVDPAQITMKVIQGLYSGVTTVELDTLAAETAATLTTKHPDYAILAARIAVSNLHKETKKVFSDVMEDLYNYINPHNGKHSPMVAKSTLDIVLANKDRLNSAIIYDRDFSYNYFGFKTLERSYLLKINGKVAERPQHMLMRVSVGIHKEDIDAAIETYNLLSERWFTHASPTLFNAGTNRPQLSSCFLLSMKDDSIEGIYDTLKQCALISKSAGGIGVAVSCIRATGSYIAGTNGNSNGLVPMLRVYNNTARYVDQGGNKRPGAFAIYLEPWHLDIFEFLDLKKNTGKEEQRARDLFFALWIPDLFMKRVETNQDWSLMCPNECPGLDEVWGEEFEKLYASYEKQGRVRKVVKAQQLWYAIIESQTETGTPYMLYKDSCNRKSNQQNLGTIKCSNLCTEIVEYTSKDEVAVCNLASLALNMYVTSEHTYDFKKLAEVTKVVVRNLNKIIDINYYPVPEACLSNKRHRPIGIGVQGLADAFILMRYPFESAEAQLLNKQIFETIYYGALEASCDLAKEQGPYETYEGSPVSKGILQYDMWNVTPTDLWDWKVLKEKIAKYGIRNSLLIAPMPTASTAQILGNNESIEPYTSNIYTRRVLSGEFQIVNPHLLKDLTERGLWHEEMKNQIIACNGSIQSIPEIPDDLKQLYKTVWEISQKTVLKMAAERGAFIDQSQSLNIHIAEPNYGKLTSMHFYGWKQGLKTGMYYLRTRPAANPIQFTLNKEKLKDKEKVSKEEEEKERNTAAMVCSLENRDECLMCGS

Compound: Nc1ccn([C@@H]2O[C@H](CO)[C@@H](O)C2(F)F)c(=O)n1 [Gemcitabine]
- effect on ribonucleotide reductase activity: synthesis. Gemcitabine is a deoxycitidine analogue which inhibits ribonucleotide reductase
